“And” between values parts separate entries of the source, which are not always exact repeats. Identical values can stand only once.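 Interpolation was linear, between the two tested concentrations surrounding the appropriate level; five concentrations were tested over 48 hours in 96-well plates. GI50 is the concentration that inhibits growth by half. TGI: concentration producing complete growth inhibition.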 *1 amine or outer side, *2 acyl side, *3 side chain or, on linkers, in order; H or OH if unused. Where a SMILES comes first, the peptide text is derived from it. Bridges are numbered along the chain shown (N, C = ends). [ ]: non-standard residue; d: D form. The star is where a group is joined. X19 = O=C([C@H](N[*:1])c1ccc(O[C@H]2O[C@@H](CO)[C@@H](O)[C@@H](O)[C@H]2O[C@@H]2O[C@H](CO)[C@H](O)[C@H](O)[C@@H]2O)cc1)[*:2]; X18 = NC(=O)[C@@H](O[*:3])[C@H](N[*:1])C(=O)[*:2]; X20 = O=C([C@H](N[*:1])c1ccc(O)c(Cl)c1)[*:2]; d(aThr) = C[C@@H](O)[C@@H](N)C(=O)O; dHpg = N[C@@H](C(=O)O)c1ccc(O)cc1; X17 = CC(C)C/C=C/C=C/C(=O)*; dOrn = NCCC[C@@H](N)C(=O)O
Test system: MDA-MB-468 breast
Experiment: NCI anticancer screen, dose series, 48 h

Compound	GI50	TGI
COc1cc(C)[nH]c(=O)c1CN1CCc2c(Cl)cc([C@H](OC)C3COC3)c(Cl)c2C1=O	> 100000 nM	> 100000 nM
COc1ccc([C@@H]2[C@@H](O)C(=O)N2c2cc(OC)c(OC)c(OC)c2)cc1	24.3 nM	67.7 nM
COc1cc(/C=C2\CN(S(=O)(=O)c3ccc(C)cc3)C/C(=C\c3cc(CN4CCCCC4)c(O)c(OC)c3)C2=O)cc(CN2CCCCC2)c1O	1940 nM	3990 nM
C=C1SC(=Nc2ccccc2Cl)N(C(=O)c2sc3ccccc3c2Cl)C1(C)C	12600 nM	> 100000 nM
O=C(NC1CCN(Cc2ccccc2)CC1)c1cc(C(=O)NC2CCN(Cc3ccccc3)CC2)cc(C(=O)NC2CCN(Cc3ccccc3)CC2)c1	866 nM	1890 nM
O=C1c2cccc3cc([N+](=O)[O-])cc(c23)C(=O)N1CCN1CCCC1	605 nM	2440 nM
Cc1nn(-c2ccccc2)c2ncnc(N/N=C/c3ccccc3O)c12	1560 nM	8590 nM
COc1cc2c(Nc3ccc(Br)cc3F)ncnc2cc1OCC1CCN(C)CC1	455 nM and 452 nM	2570 nM and 3530 nM
CCC1CCCCN1C(=S)N/N=C(\C)c1ccccn1 (centres undefined)	< 15.3 nM	503 nM
O=C1/C=C/[C@@H](O)[C@@H]2C[C@@H](O)C[C@H]2/C=C/CCC[C@H](CO)O1	419 nM	2770 nM
O=C1/C(=C/c2ccccc2Br)COc2ccc(O)c(O)c21	1650 nM	3940 nM
COc1ccccc1N1CCN(C(=O)c2ccc(NS(=O)(=O)c3cccc4cccnc34)cc2)CC1	> 28900 nM	> 100000 nM
NC(=O)c1cc(Cl)ccc1NC(=O)c1ccccc1-c1ccccc1	448 nM	48700 nM
Cc1cc(C(NC(=O)CCCCCNc2cccc3c2C(=O)N(C2CCC(=O)NC2=O)C3=O)c2cccnc2)c(O)c2ncccc12 (centres undefined)	< 10 nM	32.8 nM
O=S(=O)(NCCCNc1cc(-c2cn(-c3ccccc3)nc2-c2cccc(O)c2)ccn1)c1cccc2ccccc12	1850 nM	6010 nM
O=C1CCC2=C3C4CCCCC4C(=O)C4CCCC(OC2C1)C34 (centres undefined)	1870 nM	5200 nM
CC(C)C/C=C/C=C/C(=O)N[C@@H](CC(N)=O)C(=O)N[C@@H]1C(=O)N[C@H](c2ccc(O)cc2)C(=O)N[C@H](CCCN)C(=O)N[C@H]([C@@H](C)O)C(=O)N[C@H](c2ccc(O)cc2)C(=O)N[C@H](c2ccc(O)cc2)C(=O)N[C@H]([C@H](C)O)C(=O)N[C@H](Cc2ccccc2)C(=O)N[C@H](CCCN)C(=O)N[C@H](c2ccc(O[C@H]3O[C@@H](CO)[C@@H](O)[C@@H](O)[C@H]3O[C@@H]3O[C@H](CO)[C@H](O)[C@H](O)[C@@H]3O)cc2)C(=O)N[C@H]([C@H](C)O)C(=O)N[C@H](c2ccc(O)cc2)C(=O)NCC(=O)N[C@H](CC(C)C)C(=O)N[C@H](C)C(=O)N[C@H](c2ccc(O)c(Cl)c2)C(=O)O[C@@H]1C(N)=O (X17-N[X18][dHpg][dOrn][d(aThr)][dHpg][dHpg][dT][dF][dOrn][X19][dT][dHpg]G[dL][dA][X20]; ester 2-C)	19700 nM	56700 nM
CNC(=O)c1cncc(/C=C/c2c(C)cccc2C)c1	> 22700 nM	> 25000 nM
CCCCNC(=O)Oc1ccc2c(=O)c3sc4c(=O)c5ccccc5c(=O)c4c3c(=O)c2c1	1450 nM	3390 nM
COc1cc([C@@H]2c3cc4c(cc3[C@H](OC(C)=O)[C@H]3COC(=O)[C@H]23)OCO4)cc(OC)c1OC	29.5 nM	> 100000 nM
Cc1ccc2c(N/N=C\c3ccco3)cc(C)nc2n1	2680 nM	7470 nM

Compound	GI50	TGI
Cc1cccc2c1NC(=O)[C@@]21[C@H](C(=O)c2ccccc2)[C@]2(C(=O)Nc3ccccc32)[C@H]2CCCN21	22300 nM	> 100000 nM
N/C(=N\c1nc2ccccc2s1)NC(=O)Nc1ccccc1Cl	317 nM	5920 nM
COc1ccc(-c2csc(NC(=O)N3CCN(c4cc5c(cc4F)c(=O)c(C(=O)O)cn5C4CC4)CC3)n2)cc1	1140 nM	8130 nM
CCC(c1ccc(OC)cc1)C(CC)c1ccc(O)c(CN2CCCC2)c1 (centres undefined)	1620 nM	3690 nM
COC(=O)c1cc2c3c(cc(O)c2[nH]1)N(C(=O)C1Cc2cc(OC)c(OC)c(OC)c2N1)CC3CCl (centres undefined)	< 10 nM	< 10 nM
O=C(O[C@H]1CN[C@H](C#Cc2cc3ncnc(Nc4ccc(OCc5cccc(F)c5)c(Cl)c4)c3s2)C1)N1CCOCC1	391 nM	4780 nM
COc1cccc(-c2nc(-c3ccc(NC(=O)c4ccccc4)cc3)[nH]c2-c2ccnc(Br)c2)c1	2870 nM	> 100000 nM
CCn1cc(C(=O)N/N=C/c2cccc(F)c2)c(=O)c2cc(F)c(N3CCNC(C)C3)c(F)c21 (centres undefined)	1640 nM	3180 nM
CN(C)CCCN=c1cc2c(=O)n(CCCN(C)C)c(=O)c3c(NCCCN(C)C)cc4c(O)n(CCCN(C)C)c(=O)c1c4c3-2	1300 nM	3580 nM
COc1c(B(O)O)cccc1-c1nc2c(F)cc3[nH]ncc3c2c2c1CCCC2	1060 nM	3690 nM
C[C@@H](Oc1cc(NS(=O)(=O)N2CCC2)nc(SCc2cccc(F)c2F)n1)[C@@H](O)CO	> 100000 nM	> 100000 nM
O=C(Nc1ccc(Cl)cc1)c1cc2cc(F)ccc2cc1O	2470 nM	6170 nM
CC(C)(C)N1CC(OC(N)=O)C1	> 100000 nM	> 100000 nM
Cc1cccc2c1O/C(=C\c1ncc([N+](=O)[O-])n1C)C2=O	1410 nM	4010 nM
CC1OC(O[C@H]2/C=C/C=C/C=C/C=C/C=C/C=C/C=C/[C@H](C)[C@@H](O)[C@@H](C)[C@H](C)OC(=O)C[C@H](O)C[C@H](O)CC[C@@H](O)[C@H](O)C[C@H](O)C[C@]3(O)C[C@H](O)[C@@H](C(=O)O)[C@H](C2)O3)C(O)C(N)C1O (some centres undefined)	53300 nM	> 100000 nM
N#C/C(=C/C=C/c1ccccc1)S(=O)c1ccccc1 (centres undefined)	274 nM	987 nM
COc1ccc(Cl)cc1NC(=O)c1c(NC(=O)C(F)(F)C(F)(F)F)sc2c1CCCCC2	765 nM	4680 nM
O=c1ccccc(-c2ccc(-c3ccco3)cc2)c1O	320 nM	3300 nM
C#Cc1cccc(Nc2ncnc3ccc(-c4cnc(Cl)c(NS(C)(=O)=O)c4)cc23)c1	178 nM	880 nM
O=C1/C(=C/c2ccccc2)CN(CCC(=O)N2C/C(=C\c3ccccc3)C(=O)/C(=C/c3ccccc3)C2)C/C1=C\c1ccccc1	9330 nM	42800 nM
Oc1ccc2ccccc2c1N=Nc1ccccn1	1410 nM	4890 nM
